One may read the IC50 as the concentration at which inhibition is half-maximal. Lower therefore signals inhibition by little substance.

Experimental findings from patent US20080207617A1, “Quinoline Derivatives and Quinazoline Derivatives Inhibiting Autophosphrylation of Flt3 and Medicinal Compositions Containing the Same” (KIRIN BEER KABUSHIKI KAISHA, priority 2002, published 2008) are described below.

In assay [1] the test system is MOLM13. Briefly: Cell growth inhibitory activities on cultured human leukemia cells MOLM-13 (WST-1). It counts as cell-based. The conditions noted are these: Homo sapiens, MOLM-13, 72 h, 3 days culture. As for the experimental part:
Pharmacological Test Example 4
Cell Growth Inhibitory Activities on Cultured Human Leukemia Cells
(§1) Human leukemia cells MOLM13 (subdivided from Hayashibara Biochemical Laboratories, Inc.) were seeded in an amount of 3×10^3 using a DMEM medium containing 10% fetal calf serum (purchased from GIBCO) in a 96-well flat bottom plate. A solution of a test compound in dimethyl sulfoxide was added to each well and was cultured in a 5% carbon dioxide incubator for 3 days. Three days after the initiation of the culture, 10 μl of a WST-1 solution in Cell Counting Kit (purchased from Wako Pure Chemical Industries, Ltd.) was added to each well for a color reaction. After proper color development, the absorbance was measured with a microplate reader under conditions of measurement wavelength 450 nm and reference wavelength 650 nm. The growth ratio for each well was determined by presuming the absorbance without the addition of the medicament to be 100% growth ratio and the absorbance of the well without seeding of the cells to be 0% growth ratio. The concentration of the test compound was varied on several levels, the cell growth ratio for each case was determined, and the concentration of the test compound necessary for inhibiting 50% of cell growth ratio (IC50) was calculated.
For orientation: Tetrazolium dyes change colour on reduction, which living cells bring about.

For another assay, the system named is MV4-11. Description: Cell growth inhibitory test MV4-11 (WST-1). The assay is classed as cell-based, human. The settings on record: Homo sapiens, MV4-11, 72 h, MV4-11 cells, 3 days culture. As for the experimental part:
Pharmacological Test Example 2
Cell Growth Inhibitory Test
MV4-11 (ATCC number: CRL-9591) as human leukemia cells was seeded in an amount of 3×10^3 using a DMEM medium containing 10% fetal calf serum (purchased from GIBCO) in a 96-well flat bottom plate.
as §1, with “A” for “Human leukemia cells MOLM13 (subdivided from Hayashibara Biochemical Laboratories, Inc.) were seeded in an amount of 3×10^3 using a DMEM medium containing 10% fetal calf serum (purchased from GIBCO) in a 96-well flat bottom plate. A”

Assay [2] relates to MOLM13. Briefly: Cell growth inhibitory activity using MTT method (MOLM13). It counts as cell-based, human. The conditions noted are these: Homo sapiens, MOLM-13, 72 h, MOLM13 cells. The procedure: Pharmacological Test Example 3
Measurement of Cell Growth Inhibitory Activity Using MTT Method
Human leukemia cell line MOLM13 (subdivided from Hayashibara Biochemical Laboratories, Inc.) was cultured in an RPMI medium containing 10% fetal calf serum (purchased from Asahi Techno Glass Corporation) within a 5% carbon dioxide incubator until the cell density reached 50 to 90% of the maximum cell density. These cells were seeded into wells, containing an RPMI medium containing 10% fetal calf serum, in a 96-well flat bottom plate in an amount of […] per well. The amount of the solution of the medium in each well was brought to 100 μl, and a test compound was added thereto to 500 ng, 100 ng, 20 ng, and 4 ng per ml. After culture within an incubator for 72 hr, 10 μl of a 5 mg/ml MTT (3-(4,5-dimethylthiazol-2-yl)-2,5-diphenyl tetrazolium bromide) solution (purchased from SIGMA) was added to the medium, and a reaction was allowed to proceed for 4 hr. Thereafter, 100 μl of a 0.04 N hydrochloric acid-isopropanol solution was added to completely dissolve the resultant MTT formazan crystal. After the dissolution, absorbance at 550 nm was measured using 620 nm as a reference wavelength with a microplate reader (DIGISCAN) (It is regarded that, in the MTT method, the viable cell count is reflected, and linearity is observed in a cell count per well range of 5×10^5 to 2×10^2 cells). After 72 hr, the absorbance of only the medium free from cells was subtracted from the absorbance of the well without the addition of the test compound to determine a value which was presumed to be 100%. On the other hand, the absorbance with the addition of the compound was expressed in terms of % growth.

Molecules are shown by their SMILES.

Take `COc1cc2c(Oc3ccc(NC(=O)NCCC4CCCCC4)c(F)c3)ccnc2cc1OCCN1CCCCC1` [Compound 64, 1-(2-Cyclohexyl-ethyl)-3-{2-fluoro-4-[6-methoxy-7-(2-piperidin-1-yl-ethoxy)-quinolin-4-yloxy]-phenyl}-urea]: the IC50 with MOLM13 [1] came to 19 nM; with MV4-11, 13 nM; in the assay on MOLM13 [2], 195 nM.
In the case of `COc1cc2c(Oc3ccc(NC(=O)NCCC4CCCCC4)c(F)c3)ccnc2cc1OCCN1CCOCC1` [Compound 72, 1-(2-Cyclohexyl-ethyl)-3-{2-fluoro-4-[6-methoxy-7-(2-morpholin-4-yl-ethoxy)-quinolin-4-yloxy]-phenyl}-urea], the IC50 with MOLM13 [1] amounted to 8 nM; with MV4-11, 3 nM; in the assay on MOLM13 [2], 54.5 nM.
Consider `CCN(CC)CCCOc1cc2nccc(Oc3ccc(NC(=O)NCCC(C)(C)C)c(Cl)c3)c2cc1OC` [Compound 47, 1-{2-Chloro-4-[7-(3-diethylamino-propoxy)-6-methoxy-quinolin-4-yloxy]-phenyl}-3-(3,3-dimethyl-butyl)-urea], for which the IC50 with MOLM13 [1] came out at 60 nM; in the assay on MV4-11, 51 nM; in the assay with MOLM13 [2], 135 nM.
Consider `COc1cc2c(Oc3ccc(NC(=O)NCCC(C)(C)C)c(F)c3)ccnc2cc1OCCN1C(C)CCCC1C` (stereo not drawn) [Compound 60, 1-(3,3-Dimethyl-butyl)-3-(4-{7-[2-(2,6-dimethyl-piperidin-1-yl)-ethoxy]-6-methoxy-quinolin-4-yloxy}-2-fluoro-phenyl)-urea], for which the IC50 in the assay with MOLM13 [1] is 59 nM; in the assay on MV4-11, 33 nM; in the assay on MOLM13 [2] it was 108 nM.
As for `COc1cc2c(Oc3ccc(NC(=O)NCCC(C)(C)C)c(Cl)c3)ccnc2cc1OCCCN1CCCCC1` [Compound 46, 1-{2-Chloro-4-[6-methoxy-7-(3-piperidin-1-yl-propoxy)-quinolin-4-yloxy]-phenyl}-3-(3,3-dimethyl-butyl)-urea], the 50% inhibitory concentration (IC50) turned out to be 123 nM in the assay on MOLM13 [1], 145 nM in the assay with MV4-11 and 76.8 nM in the assay on MOLM13 [2].
Turning to `COc1cc2c(Oc3ccc(NC(=O)NCCC(C)(C)C)cc3Cl)ccnc2cc1OCCN1CC(C)OC(C)C1` (stereo not drawn) [Compound 70, 1-(3-Chloro-4-{7-[2-(2,6-dimethyl-morpholin-4-yl)-ethoxy]-6-methoxy-quinolin-4-yloxy}-phenyl)-3-(3,3-dimethyl-butyl)-urea], the half-maximal inhibitory concentration (IC50) in the assay on MOLM13 [1] stood at 3 nM; with MV4-11, 2 nM; with MOLM13 [2], 29.6 nM.
The corresponding values for `COc1cc2nccc(Oc3ccc(NC(=O)NC4CCCCC4)cc3)c2cc1OC` [Compound 26, 1-Cyclohexyl-3-[4-(6,7-dimethoxy-quinolin-4-yloxy)-phenyl]-urea] are 18 nM, 12 nM and 31.3 nM.
Regarding `COc1cc2c(Oc3ccc(NC(=O)NCCC4CCCCC4)cc3F)ccnc2cc1OCCN1CCCCC1` [Compound 58, 1-(2-Cyclohexyl-ethyl)-3-{3-fluoro-4-[6-methoxy-7-(2-piperidin-1-yl-ethoxy)-quinolin-4-yloxy]-phenyl}-urea], the IC50 in the assay on MOLM13 [1] worked out at 17 nM; in the assay with MV4-11 it was 4 nM; with MOLM13 [2], 51.6 nM.
On to `COc1cc2c(Oc3ccc(NC(=O)NCCC(C)(C)CO)c(F)c3)ccnc2cc1OCCN1CCCCC1` [Compound 63, 1-{2-Fluoro-4-[6-methoxy-7-(2-piperidin-1-yl-ethoxy)-quinolin-4-yloxy]-phenyl}-3-(4-hydroxy-3,3-dimethyl-butyl)-urea], for which the IC50 in the assay on MOLM13 [1] was determined as 22 nM; with MV4-11, 10 nM; with MOLM13 [2], 47.8 nM.
The corresponding values for `COc1cc2c(Oc3ccc(NC(=O)NCCC(C)(C)C)cc3)ccnc2cc1OCCCN1CC(C)CC(C)C1` (stereo not drawn) [Compound 54, 1-(3,3-Dimethyl-butyl)-3-(4-{7-[3-(3,5-dimethyl-piperidin-1-yl)-propoxy]-6-methoxy-quinolin-4-yloxy}-phenyl)-urea] are 10 nM, 3 nM and 19.7 nM.
